The assay relates to Mmp9. Kind of assay: Mmp9 expression by qPCR in mouse peritoneal macrophages cultured on fibronectin. Type of assay: cell-based. To be noted: wild type and Arhgef1-deficient macrophages on fibronectin; 40 nM S1P, 10 μM LPA, 6 μM PTXA2; 24 h. The procedure: FIG. 4. TP signaling is required for MMP9 production in vitro and in vivo. A) Macrophage Mmp9 expression after culture on fibronectin for 24 hrs in media/vehicle (−), 40 nM S1P, 10 μM LPA, 10 nM U-46619 (TP agonist) or 6 μM PTXA2 (TP antagonist). Data represent normalized mean±SE. B) Arhgef1−/− mice (n=16) were exposed to aerosolized PBS (n=16), 220 μM PTXA2 (n=6) or 190 μM U-46619 (n=10) for 20 minutes and BAL harvested 1 day later and MMP activity measured.
FIG. 12. Thromboxane receptor signaling is necessary for fibronectin-induced MMP9 production by macrophages and is attenuated by Arhgef1. A, representative gelatin zymograms of conditioned media from macrophages cultured on plastic (ctl) or FN and treated with 1.56 or 6.25 μM of the thromboxane receptor antagonist PTA2. Wild type (+/+) and Arhgef1^−/− (−/−) samples from separate zymograms are shown. B, quantitation of MMP9 activity as determined by densitometric analysis of zymograms in A. The results are representative of two independent experiments. C, representative zymograms from conditioned media from macrophages cultured on plastic or fibronectin and treated with 28 μM of the thromboxane receptor antagonist L-655,240. D, quantitation of MMP9 activity as determined by densitometric analysis of zymograms in C. The results are compiled from two independent experiments with n=4 for both wild type (open bars) and Arhgef1^−/− (black bars) samples. The data represent the means±S.E. *, p<0.05 Student's two-tailed t test compared with conditioned media from cells cultured on plastic. #, p<0.05 Student's two-tailed t test comparing conditioned media from wild type cells to Arhgef1^−/− cells cultured under identical conditions. $, p<0.05 Student's two-tailed t test compared with conditioned media from cells cultured on fibronectin. E, MMP2 activity was quantitated in conditioned media as previously described for MMP9. The results are compiled from four independent experiments with n=10 for wild type (open bars) and Arhgef1^−/− (black bars) samples cultured on either plastic or fibronectin. For cells treated with 20 mM aspirin, n=6 for wild type (open bars) and Arhgef1^−/− (black bars) samples. For cells treated with 28 μM L-655,240, n=4 for wild type (open bars) and Arhgef1^−/− (black bars) samples. The data represent the means±S.E. F, MMP9 activity was quantitated as previously described and normalized to a percentage of fibronectin response for each genotype. The cells were either untreated or treated with 0.5% Me2SO or 28 μM L-655,240. The results are compiled from two independent experiments with n=3 for all conditions and genotypes. The data represent the means±S.E. *, p<0.05 Student's two-tailed t test compared with conditioned media from cells cultured on fibronectin. G, relative Mmp9 expression was measured by qPCR in macrophages cultured on fibronectin in the presence of the thromboxane receptor agonist (U-46619, 10 nM), S1P (40 nM), or LPA (10 μM). […] Wild type (open bars, n=12, 6, 3, and 3 for fibronectin, +U-46619, +S1P, and +LPA, respectively) and Arhgef1^−/− (black bars, n=14, 6, 3, and 2, respectively) from at least two independent experiments. The data represent the means±S.E. *, p<0.05 Student's two-tailed t test compared with conditioned media from cells cultured on fibronectin, #, p<0.05 Student's two-tailed t test comparing conditioned media from wild type cells to Arhgef1^−/− cells cultured under identical conditions. […]
(In general: In qPCR the cycle at which signal appears reflects the starting amount.)

Here are results for one compound from patent publication US9820951B2, “Pulmonary disease treatment and diagnosis based on Arhgef1” (NATIONAL JEWISH HEALTH, A NON-PROFIT ORGANIZATION, priority 2011, dated 2017).

Turning to `CCCCC[C@@H](O)/C=C/[C@H]1C[C@H]2C[C@@H]([C@@H]1C/C=C\CCCC(=O)O)C2(C)C` (relative stereo) [PTXA2, (18-(1alpha,2beta(Z),3alpha(1E,3S*),5alpha))-7-(3-(3-Hydroxy-1-octenyl)-6,6-dimethylbicyclo(3.1.1)hept-2-yl)-5-heptenoic acid], the Mmp9 expression result is “ablated Mmp9 expression”.
